Laboratory results: US8299054B2, “Cyclic 11-beta hydroxysteroid dehydrogenase type 1 inhibitors” (Bristol-Myers Squibb Company, priority 2006, dated 2012)
Like-named read-outs stand apart in the source and are kept apart here.

Experiments:
[1] = target: recombinant human 11beta-HSD1 (Homo sapiens, UniProt P28845); assay: 11β-HSD-1 SPA Enzyme Assay (Scintillation Proximity assay, microsomes of transfected HEK 293 EBNA cells)
Description: The supernatant was further centrifuged at 105,000×g for 60 min. The 105,000×g pellet was resuspended in buffer H and centrifuged at 105,000×g for 60 min. […] Aliquots were stored at −80° C. until needed. The protein concentration was measured by the BioRad method using BSA standard.
Compounds were dissolved in DMSO to obtain 10 mM stock concentrations. From the 10 mM stock, the compounds were diluted in DMSO to achieve the concentrations.
11β-HSD-1 was assayed by Scintillation Proximity assay in a 384-well Perkin Elmer white plate. The dose response of the compounds was determined using 11 half-log dilutions of compound in DMSO in duplicate. To each well, 0.5 μl of compound dilution in DMSO were added. 15 μl of assay buffer (for blanks) or 15 μl of human microsomes in assay buffer were added next and the plates were incubated for 10 min at room temperature. […] Duplicates were in the same plate one row below the other. 10 μl of ^3H-cortisone (final concentration 40 nM) was added to each well and the plate was spun down to mix and bring down the contents to the bottom of the wells. The plates were incubated at room temperature with gentle shaking for 4 hrs. The reaction was stopped with addition of 10 μl of 10 mM carbenoxolone. Then, 0.5 mg of yttrium silicate SPA beads coupled to anti-cortisol antibody in 20 μl were added to all the wells of plate, which were spun down once more and incubated at room temperature overnight. The plate was read in a TopCount® (1 min/well). Data were uploaded automatically to Tool Set, a Lead Evaluation informatics program for data capture and calculation. Graphs were generated with the Curve Master program.

[2] = target: T1, 11beta-HSD1 (Mus musculus, UniProt P50172); assay: In vivo inhibition of 11beta-HSD1: DHC administration to DIO mice, plasma corticosterone AUC; details: 30 mpK, oral, DHC 10 mg/kg 60 minutes after compound
T1 construct: from tissue; host or cells: whole animal: diet induced obese (DIO) mice, Jackson Laboratory
T1 sequence (P50172 whole entry): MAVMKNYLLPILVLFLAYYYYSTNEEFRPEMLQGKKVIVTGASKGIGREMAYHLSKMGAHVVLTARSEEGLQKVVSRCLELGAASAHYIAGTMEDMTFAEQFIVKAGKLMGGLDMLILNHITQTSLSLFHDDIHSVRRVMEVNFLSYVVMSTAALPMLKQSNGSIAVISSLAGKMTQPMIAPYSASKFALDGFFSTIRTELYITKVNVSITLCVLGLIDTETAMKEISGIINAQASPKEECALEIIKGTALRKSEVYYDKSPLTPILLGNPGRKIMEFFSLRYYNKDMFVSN

[3] = test system: hepatic glucose production; details: patients with type 2 diabetes, seven days, versus placebo; cited from earlier work
[4] = read-out: h HSD1 IC50, human microsomes, 40 nM 3H-cortisone, 4 hrs at room temperature

Sequence of recombinant human 11beta-HSD1 (P28845 whole entry): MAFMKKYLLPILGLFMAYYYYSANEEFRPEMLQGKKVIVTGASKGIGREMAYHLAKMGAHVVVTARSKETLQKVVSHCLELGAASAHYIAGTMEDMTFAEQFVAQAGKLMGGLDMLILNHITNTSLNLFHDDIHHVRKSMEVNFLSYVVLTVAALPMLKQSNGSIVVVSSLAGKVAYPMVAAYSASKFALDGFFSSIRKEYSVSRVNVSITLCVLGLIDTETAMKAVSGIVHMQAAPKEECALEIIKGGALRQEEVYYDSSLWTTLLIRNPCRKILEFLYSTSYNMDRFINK

Row | IC50 [1] [nM] | SMILES | also measured
1 | 25 | CN(CCO)C(=O)CC1(c2ccc(F)cc2)C2CC3CC(C2)CC1C3 (centres unmarked) [Example 304] | –
2 | 1150 | O=C(O)C1(CCc2ccccc2)C2CC3CC(C2)CC1C3 (centres unmarked) [Example 136] | –
3 | 4.7 | O=C(CC1(c2ccc(F)cc2)C2CC3CC(C2)CC1C3)N1CCC(OCc2ccccc2)C1 (centres unmarked) [Example 303] | –
4 | 159 | CS(=O)(=O)NC(=O)CC1(c2ccc(F)cc2)C2CC3CC(C2)CC1C3 (centres unmarked) [Example 22] | –
5 | 1 | O=C(CC1(c2ccc(F)cc2)C2CC3CC(C2)CC1C3)N1CC(Oc2ccccc2)C1 (centres unmarked) [Example 174] | –
6 | 457 | O=C(O)C1CN(C(=O)C2CN(C(=O)CC3(Cc4ccccc4)C4CC5CC(C4)CC3C5)C2)C1 (centres unmarked) [Example 106] | –
7 | 16 | O=C(CC1(c2ccccc2)C2CC3CC1CC(C2)C3O)N1C[C@H](O)CO1 (single isomer, unassigned) [Example 270] | –
8 | 21 | CNC(=O)OC1CN(C(=O)C[C@]2(c3ccc(F)cc3)C3CC4CC2C[C@](C(N)=O)(C4)C3)C1 [Example 32] | –
9 | 8.8 | CNC(=O)OC1CN(C(=O)CC2(c3ccccc3)C3CC4CC2CC(C3)C4O)C1 (single isomer, unassigned) [Example 242] | % inhibition [2]: 65%
10 | – | O=C(CC1(c2ccc(F)cc2)C2CCCC1CC(O)C2)N1CC(O)C1 (centres unmarked) [Example 23, 2-(9-(4-Fluorophenyl)-3-hydroxybicyclo[3.3.1]nonan-9-yl)-1-(3-hydroxyazetidin-1-yl)ethanone] | IC50 [1, 4]: 8.3 nM
11 | 2.8 | CC(C)c1ccc(C2(CC(=O)N3CC(O)C3)C3CC4CC2CC(C3)C4O)cc1 (centres unmarked) [Example 292] | –
12 | – | Cc1nnc(COC2CN(C(=O)CC3(c4ccccc4)C4CC5CC3CC(C4)C5O)C2)o1 (centres unmarked) [Example 36] | IC50 [1, 4]: 14 nM
13 | 383 | CCN(CC)C(=O)CC1(c2ccc(F)cc2)C2CC3CC1CC(F)(C3)C2 (centres unmarked) [Example 307] | –
14 | – | Cc1nnc(C2CN(C(=O)CC3(c4ccccc4)C4CC5CC3CC(C4)C5O)C2)o1 (centres unmarked) [Example 34] | IC50 [1, 4]: 196 nM
15 | 67 | CNC(=O)OC1CN(C(=O)C2(Cc3ccc(Cl)cc3)C3CC4CC(C3)CC2C4)C1 (centres unmarked) [Example 240] | –
16 | 15 | O=C(N1CC(O)C1)C1(Cc2ccccc2Cl)C2CC3CC(C2)CC1C3 (centres unmarked) [Example 37] | –
17 | 81 | COC(=O)C1CN1C(=O)CC1(c2ccc(F)cc2)C2CC3CC(C2)CC1C3 (centres unmarked) [Example 79] | –
18 | 6.1 | O=C(CC1(c2ccccc2)C2CC3CC1CC(C2)C3O)N1CC(CO)C1 (single isomer, unassigned) [Example 265] | –
19 | – | CC1(C)[C@@H](OC(=O)CCC(=O)O)CC[C@]2(C)[C@H]3C(=O)C=C4[C@@H]5C[C@@](C)(C(=O)O)CC[C@]5(C)CC[C@@]4(C)[C@]3(C)CC[C@@H]12 [carbenoxolone] | hepatic glucose production [3]: decrease in hepatic glucose production
20 | 253 | O=C(C[C@]1(Cc2ccccc2)C2CC3CC1C[C@@](O)(C3)C2)N1CC(O)C1 [Example 122] | –
21 | 2.4 | N#Cc1ccc(OC2CN(C(=O)CC3(c4ccc(F)cc4)C4CC5CC(C4)CC3C5)C2)nc1 (centres unmarked) [Example 182] | –
22 | 15 | O=C(O)C1(Cc2cccc(F)c2)C2CC3CC(C2)CC1C3 (centres unmarked) [Example 132] | –
23 | 182 | CC1(CC(=O)N2CC(NC(=O)OCc3ccccc3)C2)C2CC3CC1CC(C2)C3O (centres unmarked) [Example 183] | –
24 | 1720 | CS(=O)(=O)NC(=O)C1CN(C(=O)CC2(c3ccccc3)C3CC4CC2CC(C3)C4O)C1 (centres unmarked) [Example 250] | –
25 | – | CC1(CC(=O)N2CC(O)(c3ccc(F)cc3)C2)C2CC3CC1CC(C2)C3O (centres unmarked) [Example 213] | IC50 [1, 4]: 44 nM
26 | 2.4 | O=C(CC1(c2ccc(F)cc2)C2CC3CC(C2)CC1C3)N1CC[C@H](O)C1 (single isomer, unassigned) [Example 302] | –

Row | IC50 [1] [nM] | SMILES | also measured
27 | 175 | O=C(CC1(c2ccccc2)C2CC3CC1CC(C2)C3O)N1CCC[C@@H](O)C1 (single isomer, unassigned) [Example 281] | –
28 | 128 | O=C(C[C@]1(c2ccc(F)cc2)C2CC3CC1C[C@@](C(=O)O)(C3)C2)N1CC(O)C1 [Example 181] | –
29 | 97 | O=C(O)CC1(Cc2ccccc2)C2CCCC1CCC2 (centres unmarked) [Example 49] | –
30 | 28 | O=C(NC1CCN(C(=O)CC2(c3ccc(F)cc3)C3CC4CC(C3)CC2C4)C1)OCc1ccccc1 (centres unmarked) [Example 305] | –
31 | 16 | CC(C)(O)CNC(=O)OC1CN(C(=O)CC2(c3ccccc3)C3CC4CC2CC(C3)C4O)C1 (centres unmarked) [Example 243] | –
32 | 1.6 | C=CCO[C@]12CC3CC(C1)[C@](CC(=O)N1CC(O)C1)(c1ccc(F)cc1)C(C3)C2 [Example 98] | –
33 | 651 | Cc1noc(C)c1CC1(C(=O)O)C2CC3CC(C2)CC1C3 (centres unmarked) [Example 140] | –
34 | – | CNC(=O)OCC1CN(C(=O)CC2(c3ccccc3)C3CC4CC2CC(C3)C4O)C1 (centres unmarked) [Example 216] | IC50 [1, 4]: 5.1 nM
35 | 121 | CC(C(=O)N1CC(O)C1)C1(c2ccc(F)cc2)C2CC3CC(C2)CC1C3 (centres unmarked) [Example 188] | –
36 | 274 | CNC(=O)OC1CN(C(=O)CC2(c3ccc(F)cc3)C3CC4CC2CC(C3)O4)C1 (centres unmarked) [Example 236] | –
37 | 20 | O=C(C[C@]1(Cc2ccccc2Cl)C2CC3CC1C[C@](O)(C3)C2)N1CC(O)C1 [Example 167] | –
38 | 90 | O=C(O)COC1CN(C(=O)CC2(c3ccc(F)cc3)C3CC4CC(C3)CC2C4)C1 (centres unmarked) [Example 117] | –
39 | – | O=C(CC1(c2ccc(F)cc2)C2CC3CC1CC(C2)C3O)N1CC(O)C1 (centres unmarked) [Example 217] | % inhibition [2]: 67%
40 | 520 | COC(=O)NC1CN(C(=O)CC2(c3ccc(F)cc3)C3CC4CC2CC(C3)O4)C1 (centres unmarked) [Example 235] | –
41 | 260 | O=C(CC1(c2ccccc2)C2CC3CC1CC(C2)C3O)N1CCC[C@H](O)C1 (single isomer, unassigned) [Example 279] | –
42 | 2980 | O=C(O)C1(Cc2coc(-c3ccc(F)cc3)n2)C2CC3CC(C2)CC1C3 (centres unmarked) [Example 55] | –
43 | 75 | O=C(NCc1nnn[nH]1)OC1CN(C(=O)CC2(c3ccccc3)C3CC4CC2CC(C3)C4O)C1 (single isomer, unassigned) [Example 259] | –
44 | 316 | COC(=O)NC1CN(C(=O)C[C@]2(c3ccc(F)cc3)C3CC4CC2C[C@](C(N)=O)(C4)C3)C1 [Example 210] | –
45 | 636 | O=C(CC1(c2ccccc2)C2CC3CC1CC(C2)C3O)N1CC(c2nnc3ccccn23)C1 (centres unmarked) [Example 35] | –
46 | 633 | O=C(O)COC1(c2ccc(F)cc2)C2CC3CC(C2)CC1C3 (centres unmarked) [Example 8] | –
47 | 3 | O=C(CC1(c2ccccc2)C2CC3CC1CC(C2)C3O)N1CCSC1 (centres unmarked) [Example 247] | –
48 | 30 | C=C1CC2CCC(C1)C2(CC(=O)O)c1ccc(F)cc1 (centres unmarked) [Example 134] | –
49 | – | CS(=O)(=O)NC1CN(C(=O)CC2(Cc3ccccc3)C3CC4CC2CC(C3)C4O)C1 (centres unmarked) [Example 195] | IC50 [1, 4]: 105 nM
50 | 9120 | O=C(O)C(C(=O)N1CC(O)C1)C1(c2ccc(F)cc2)C2CC3CC(C2)CC1C3 (centres unmarked) [Example 190] | –
51 | 127 | CNC(=O)NC1CN(C(=O)CC2(c3ccccc3)C3CC4CC2CC(C3)C4O)C1 (centres unmarked) [Example 212] | –
52 | – | Cn1nnc(C2CN(C(=O)CC3(c4ccccc4)C4CC5CC3CC(C4)C5O)C2)n1 (centres unmarked) [Example 28] | IC50 [1, 4]: 10 nM
